Assay results taken from patent US10875876B2, “Cyclized sulfamoylarylamide derivatives and the use thereof as medicaments for the treatment of hepatitis B” (priority 2015, dated 2020).
Like-named read-outs stand apart in the source and are kept apart here.

Tests used:
HBV = assay: anti HBV activity, HepG2.117 cell line, intracellular HBV DNA by realtime PCR; assay type: cell-based; conditions: HepG2.117 cell line (Tet-off), 3 days of treatment, intracellular HBV DNA quantified by realtime PCR, read-out: HBV-AVE-HepG2.117 EC50
Outline: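 Readout was intracellular HBV DNA by real-time PCR (HBV-specific primers and probe) after 3 days of compound exposure. Serial dilutions were tested in duplicate on HepG2.117 cells, a stable inducible HBV producer in which replication is switched on when doxycycline is absent.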

[1] = Cytotoxicity in HepG2 cells, Resazurin assay; conditions: human, HepG2 cells, TOX-HepG2-4 d CC50 (μM), HepG2 cells incubated for 4 days, viability by Resazurin assay
[2] = Hepatitis B virus, HepG2.117, 72 h

Row | SMILES | EC50 (HBV; [2]) [nM] | CC50 at 4 days [1] [µM] | EC50 (HBV) [nM]
1 | C[C@H](O)[C@H]1C=Cc2c(cn(C)c2C(=O)Nc2ccnc(Br)c2)S(=O)(=O)N1 [Compound 97, (3R)—N-(2-bromo-4-pyridyl)-3-[(1S)-1-hydroxyethyl]-7-methyl-1,1-dioxo-2,3-dihydropyrrolo[3,4-f]thiazepine-6-carboxamide] | 55 | > 25 | –
2 | Cn1cc2c(c1C(=O)Nc1ccc(F)c(F)c1)OCC(C1CCNCC1)NS2(=O)=O (stereo not drawn) [Compound 73, N-(3,4-difluorophenyl)-7-methyl-1,1-dioxo-3-(4-piperidyl)-3,4-dihydro-2H-pyrrolo[3,4-b][1,4,5]oxathiazepine-6-carboxamide] | 480 | > 25 | –
3 | C[C@H]1CCc2c(cn(C)c2C(=O)Nc2ccnc(Cl)c2)S(=O)(=O)N1 [Compound 166, (3S)—N-(2-chloro-4-pyridyl)-3,7-dimethyl-1,1-dioxo-2,3,4,5-tetrahydropyrrolo[3,4-f]thiazepine-6-carboxamide] | 56 | > 25 | –
4 | CC1CCCC/C=C/Cc2c(cn(C)c2C(=O)Nc2ccc(F)c(F)c2)S(=O)(=O)N1 (stereo not drawn) [Compound 1, (9E)-N-(3,4-difluorophenyl)-4,14-dimethyl-2,2-dioxo-2λ^6-thia-3,14-diazabicyclo[10.3.0]pentadeca-1(15),9,12-triene-13-carboxamide] | 2740 | > 25 | –
5 | CC1CCC/C=C/Cc2c(cn(C)c2C(=O)Nc2ccc(F)c(F)c2)S(=O)(=O)N1 (stereo not drawn) [Compound 2b, 8E-N-(3,4-difluorophenyl)-4,13-dimethyl-2,2-dioxo-2λ^6-thia-3,13-diazabicyclo[9.3.0]tetradeca-1(14),8,11-triene-12-carboxamide] | 490 | > 25 | –
6 | C=C1c2c(cn(C)c2C(=O)Nc2ccc(F)c(F)c2)S(=O)(=O)NC1C(C)C (stereo not drawn) [compound 237] | > 500 | > 25 | –
7 | Cn1cc2c(c1C(=O)Nc1ccc(F)c(F)c1)OC[C@H](c1ccccc1)NS2(=O)=O [Compound 26, (3S)—N-(3,4-difluorophenyl)-7-methyl-1,1-dioxo-3-phenyl-3,4-dihydro-2H-pyrrolo[3,4-b][1,4,5]oxathiazepine-6-carboxamide] | 27 | > 25 | –
8 | Cn1cc2c(c1C(=O)Nc1ccnc(C(F)F)c1)OC[C@H](C(C)(C)O)NS2(=O)=O [Compound 151, (3R)—N-[2-(difluoromethyl)-4-pyridyl]-3-(1-hydroxy-1-methyl-ethyl)-7-methyl-1,1-dioxo-3,4-dihydro-2H-pyrrolo[3,4-b][1,4,5]oxathiazepine-6-carboxamide] | 76 | > 25 | –
9 | CC(C)C1C=Cc2c(cn(C)c2C(=O)Nc2ccc(F)c(F)c2)S(=O)(=O)N1 (single isomer, unassigned) [Compound 79a, N-(3,4-difluorophenyl)-3-isopropyl-7-methyl-1,1-dioxo-2,3-dihydropyrrolo[3,4-f]thiazepine-6-carboxamide] | – | > 25 | 43
10 | CC1C/C=C\c2c(cn(C)c2C(=O)Nc2ccc(F)c(F)c2)S(=O)(=O)N1 (single isomer, unassigned) [Compound 15a, (5Z)—N-(3,4-difluorophenyl)-3,8-dimethyl-1,1-dioxo-3,4-dihydro-2H-pyrrolo[3,4-g]thiazocine-7-carboxamide] | – | > 25 | 78
11 | Cc1ccc(NC(=O)c2c(F)ccc3c2OC[C@@H](C(C)C)NS3(=O)=O)cc1F [Compound 46, (3R)-7-fluoro-N-(3-fluoro-4-methyl-phenyl)-3-isopropyl-1,1-dioxo-3,4-dihydro-2H-5,1λ^6,2-benzoxathiazepine-6-carboxamide] | 330 | > 25 | –
12 | Cn1cc2c(c1C(=O)Nc1ccnc(C(F)F)c1)OCC(C)(CO)NS2(=O)=O (single isomer, unassigned) [Compound 215a, N-[2-(difluoromethyl)-4-pyridyl]-3-(hydroxymethyl)-3,7-dimethyl-1,1-dioxo-2,4-dihydropyrrolo[3,4-b][1,4,5]oxathiazepine-6-carboxamide] | – | > 25 | 62
